Bounds are passed on as bounds.

These results are taken from US7960563B2, “Indazoles used to treat estrogen receptor beta mediated disorders” (Glaxo Group Limited, priority 2007, dated 2011).

For the first test, the target named is T1, ERbeta protein (Homo sapiens, UniProt Q92731).
T1 construct: […]; His6 (leader […]) (N)
T1 sequence (Q92731 with tags, fused parts or gaps): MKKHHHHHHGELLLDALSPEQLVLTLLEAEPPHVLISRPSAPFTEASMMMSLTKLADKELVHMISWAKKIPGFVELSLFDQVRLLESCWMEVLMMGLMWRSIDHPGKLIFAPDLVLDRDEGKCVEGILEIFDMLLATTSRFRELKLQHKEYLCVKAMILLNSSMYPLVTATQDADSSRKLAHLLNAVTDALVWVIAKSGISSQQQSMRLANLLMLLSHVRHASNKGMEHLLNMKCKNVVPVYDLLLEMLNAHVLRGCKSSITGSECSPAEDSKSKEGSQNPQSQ
The test can be described thus: ER beta FP binding assay. To be noted: 6 nM ERbeta protein, 1.5 nM ER FP ligand (Fluormone EL Red), 3 hours at room temperature; read-out: pIC50 in the ER beta FP binding assay (converted). The protocol:
(§1) Assay Buffer (AB) (50 mM MOPES pH 7.5, 50 mM NaF, 2.5 mM CHAPs), in deionized water, 5 mM 1,4 dithiothreitol (DTT) added on day of the experiment. The appropriate amount of AB was placed in a plastic tube, adding solid DTT before the assay was run. AB with DTT was distributed to plastic tubes. We have found use of plastic to be important vs glass. A final concentration of 6 nM ERbeta protein was added to the tube followed by gentle inversion. A final concentration of 1.5 nM ER FP ligand (Fluormone™ EL Red 200 nM in 20 mM Tris, 90% Methanol purchased from Invitrogen catalogue no P3030) was added to the same tube followed by gentle inversion. This was allowed to sit for 5-10 minutes before adding it to the 384 assay plate. Similar protocol was used for ERalpha with a final concentration of 4 nM ERalpha and 1.5 nM ER FP ligand.
(§2) 384 plates containing test compounds dissolved in 100% DMSO at 1 mM were serially diluted (1:3) by a Beckman FX. Serial diluted test compounds were added, […], to the assay plates with a maximum final concentration of 10 uM. Once the assay plates were ready, 10 uL of the above reagents were added to the appropriate set of plates with the Thermo combi. These plates were then sealed and place at room temperature for 3 hours.
The plates were then placed on the Molecular Devices Analyst and counted (excitation 535 nm, emission 590 nm with a 561 Dichroic mirror). Data was normalized to control then fitted to a non-linear least squares algorithm (see below).
pIC50 Calculation y=a+((b−a)/(1+(10^x/10^c)^d) Results
The amino acid sequence of human ER beta used in this assay is […]
Consider `Oc1ccc(-n2ncc3c(O)cccc32)cc1F` [Example 1, 1-(3-Fluoro-4-hydroxyphenyl)-1H-indazol-4-ol], for which the IC50 was less than 100 nM.
For `N#Cc1cc(O)c2cnn(-c3ccc(O)c(F)c3)c2c1` [Example 3, 1-(3-Fluoro-4-hydroxyphenyl)-4-hydroxy-1H-indazole-6-carbonitrile], the IC50 was less than 100 nM.
Still for that read-out and setting: the result for `Oc1ccc(-n2ncc3c(O)cc(F)cc32)cc1F` [Example 4, 6-Fluoro-1-(3-fluoro-4-hydroxyphenyl)-1H-indazol-4-ol] reads less than 100 nM.
On the same count and under the same terms, the result for `Oc1ccc(-n2ncc3c(O)cc(Br)cc32)cc1F` [Example 5, 6-Bromo-1-(3-fluoro-4-hydroxyphenyl)-1H-indazol-4-ol] reads less than 100 nM; that for `C=Cc1cc(O)c2cnn(-c3ccc(O)c(F)c3)c2c1` [Example 6, 6-Ethenyl-1-(3-fluoro-4-hydroxyphenyl)-1H-indazol-4-ol], less than 100 nM; that for `CCc1cc(O)c2cnn(-c3ccc(O)c(F)c3)c2c1` [Example 7, 6-Ethyl-1-(3-fluoro-4-hydroxyphenyl)-1H-indazol-4-ol], less than 100 nM.
With `Oc1ccc(-n2ncc3c(O)cc(Cl)cc32)cc1F` [Example 8, 6-Chloro-1-(3-fluoro-4-hydroxyphenyl)-1H-indazol-4-ol], the IC50 is less than 100 nM.
Still for that read-out and setting: for `Cc1cc(O)c2cnn(-c3ccc(O)c(F)c3)c2c1` [Example 9, 1-(3-Fluoro-4-hydroxyphenyl)-6-methyl-1H-indazol-4-ol] the value was less than 100 nM; for `Oc1ccc(-n2ncc3c(O)c(F)ccc32)cc1F` [Example 10, 5-Fluoro-1-(3-fluoro-4-hydroxyphenyl)-1H-indazol-4-ol], less than 100 nM.
The same measure, in the same setting: for `Oc1ccc(-n2ncc3c(O)c(Br)ccc32)cc1F` [Example 11, 5-Bromo-1-(3-fluoro-4-hydroxyphenyl)-1H-indazol-4-ol] the value was less than 100 nM.
As to `Oc1ccc(-n2ncc3c(O)ccc(F)c32)cc1F` [Example 13, 7-Fluoro-1-(3-fluoro-4-hydroxyphenyl)-1H-indazol-4-ol], the IC50 is less than 100 nM.
On the same count and under the same terms, the result for `Oc1ccc(-n2ncc3c(O)ccc(Cl)c32)cc1F` [Example 14, 7-Chloro-1-(3-fluoro-4-hydroxyphenyl)-1H-indazol-4-ol] reads less than 100 nM; that for `Oc1ccc(-n2ncc3c(O)cccc32)cc1Cl` [Example 17, 1-(3-Chloro-4-hydroxyphenyl)-1H-indazol-4-ol], less than 100 nM.

A further test concerns the target T2, ERalpha (Homo sapiens, UniProt P03372).
T2 construct: […]; His6 (leader […]G) (N)
T2 sequence (P03372 with tags, fused parts or gaps): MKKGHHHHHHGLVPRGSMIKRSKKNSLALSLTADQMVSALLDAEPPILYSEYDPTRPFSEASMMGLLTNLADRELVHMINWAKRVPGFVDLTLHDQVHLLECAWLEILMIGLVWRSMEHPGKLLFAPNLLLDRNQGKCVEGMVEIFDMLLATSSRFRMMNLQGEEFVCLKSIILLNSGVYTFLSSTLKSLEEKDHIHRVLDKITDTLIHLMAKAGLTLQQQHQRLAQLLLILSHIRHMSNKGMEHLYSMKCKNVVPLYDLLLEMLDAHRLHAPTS
The test can be described thus: ER alpha FP binding assay. To be noted: ER beta versus ER alpha, FP binding assays. The protocol:
as §1, §2
The plates were then placed on the Molecular Devices Analyst and counted (excitation 535 nm, emission 590 nm with a 561 Dichroic mirror). […]
Turning to `Oc1ccc(-n2ncc3c(O)cccc32)cc1F` [Example 1, 1-(3-Fluoro-4-hydroxyphenyl)-1H-indazol-4-ol], the “selectivity versus ER alpha” value is greater than 10 fold.
